From patent US4182877A, “Substituted anthranilates” (Commonwealth Scientific and Industrial Research Organization, priority 1976, dated 1980) come the findings set out here.

≈ marks a conversion by molar mass, not a printed value.

In this test the test system is Tilletia foetida. Description: In vitro inhibition of germination of Tilletia foetida (wheat smut) spores on agar medium. The format is cell-based. Particulars: Tilletia laevis, 10° C. in the dark, 8-9 days, tested at 5, 10, 25, 50, 100 and 150 ppm, spores germinated as percentage of control, read-out: Minimum inhibitory concentration (ppm) which reduces germination to <20% control. As for the experimental part:
In vitro assays using compounds of the formula I were carried out as follows. An agar medium prepared from Difco "Bacto-Agar" and distilled water was sterilised in an autoclave. Aliquots of the test compounds in acetone solution were added to two duplicate samples of the medium to give final concentrations of 5, 10, 25, 50, 100 and 150 ppm, and the resulting solutions poured into sterilised petri dishes and inoculated with Tilletia foetida (wheat smut) from the kernels of infected wheat. […] The inhibition of germination due to the test compounds was then determined by estimating (microscope) the spores germinated as a percentage of control.

With `CCOC(=O)c1c(N(CC)CC)cc(C)c([N+](=O)[O-])c1Cl` [Compound 7], the MIC is 25 µg/mL (≈ 79.4 µM).
`CCOC(=O)c1c(N(C)C)cc(C)c(SC#N)c1Cl` [Compound 4, Ethyl 6-chloro-4,N,N-trimethyl-5-thiocyanoanthranilate]: the MIC is below 5 µg/mL.
The value for `CCOC(=O)c1c(Cl)cc(C)cc1N(CC)CC` [R^1 = R^2 = R^3 = Et] was 25 µg/mL (≈ 92.7 µM).
On to `CCOC(=O)c1c(N(CC)CC)cc(C)c(SC#N)c1Cl` [Compound 5], for which the MIC was determined as 10 µg/mL (≈ 30.6 µM).
Next, `CCOC(=O)c1c(Cl)cc(C)cc1N(C)C` [Compound 1, Ethyl 6-chloro-4,N,N-trimethylanthranilate]: 25 µg/mL (≈ 103 µM); `CCOC(=O)c1c(N(C)C)cc(C)c([N+](=O)[O-])c1Cl` [Compound 6, Ethyl-6-chloro-4,N,N-trimethyl-5-nitroanthranilate]: below 5 µg/mL.
The value for `CCOC(=O)c1c(Cl)c(Cl)c(C)c(Cl)c1N(C)C` [Compound 3, Ethyl 3,5,6-trichloro-4,N,N-trimethylanthranilate] was 5 µg/mL (≈ 16.1 µM).
